Measurements taken from patent US10689458B2, “Site specific HER2 antibody drug conjugates” (Pfizer Inc., priority 2015, dated 2020).
Entries after “also recorded” stand apart in the source; their conditions may differ. Like-named read-outs stand apart in the source and are kept apart here. Square brackets hold non-standard residues; d marks the D form. Peptide text beside a SMILES is read from it. * marks the point of attachment. Dolaproine = CO[C@@H]([C@@H]1CCCN1)[C@@H](C)C(=O)O; Dil = CC[C@H](C)[C@H](NC)[C@@H](CC(=O)O)OC; Doe = c1ccc(C[C@H](N*)c2nccs2)cc1; Aib = CC(C)(N)C(=O)O

Experiments:
[1] = tested on: T-DM1 resistant cells (N87-TDM); assay: Cytotoxicity on cells relapsed from T-DM1 treatment in vivo (CellTiter Glo, 96 hours); type: cell-based; conditions: for IC50: 96 h; for sensitivity of cells relapsed from T-DM1 treatment (in words): compared to parental N87
Method: (§1) Cells were incubated for 96 hours in a humidified 37° C./5% CO2 incubator.

parental N87 cells = assay: Cytotoxicity on parental N87 cells (CellTiter Glo, 96 hours); type: cell-based; conditions: free payload, N87 cell line, read-out: Sensitivity to free payload (IC50), N87
Method: as §1

N87-TM cells = assay: Cytotoxicity on T-DM1 resistant cells made in vitro, population not specified (MTS, 4 days); type: cell-based; conditions: N87-TM versus N87-parental
Method: (§2) N87 cells were passaged into two separate flasks and each flask was treated identically with respect to the resistance-generation protocol to enable biological duplicates. […] The procedure was intended to simulate the chronic, multi-cycle (on/off) dosing at maximally tolerated doses typically used for cytotoxic therapeutics in the clinic, followed by a recovery period. […] Data were collected from various thawed cryopreserved populations derived from a single selection, over approximately 1-2 years after model development to ensure consistency in the results.
(§3) ADCs were prepared as indicated in Example 3. Unconjugated maytansine analog (DM1) and auristatin analogs were prepared by Pfizer Worldwide Medicinal Chemistry (Groton, Conn.). Other standard-of-care chemotherapeutics were purchased from Sigma (St. Louis, Mo.). Cells were seeded in 96-well plates at low density, then treated the following day with ADCs and unconjugated payloads at 3-fold serial dilutions at 10 concentrations in duplicate. Cells were incubated for 4 days in a humidified 37° C./5% CO2 incubator. The plates were harvested by incubating with CellTiter® 96 AQueous One MTS Solution (Promega, Madison, Wis.) for 1.5 hours and absorbance measured on a Victor plate reader (Perkin-Elmer, Waltham, Mass.) at wavelength 490 nm. IC50 values were calculated using a four-parameter logistic model with XLfit (IDBS, Bridgewater, N.J.).

[2] = tested on: Her2-expressing cell lines BT474 and SKBR3; assay: ADCC assay (LDH release, NK-92 or human PBMC effector cells); type: cell-based; conditions: 1 μg/ml antibody or ADC, 6 hours
Method: In ADCC assays, Her2-expressing cell lines BT474 and SKBR3 were used as target cells while NK-92 cells (an interleukin-2 dependent natural killer cell line derived from peripheral blood mononuclear cells from a person by Conkwest) or human peripheral blood mononucleocytes (PBMC) isolated from the freshly drawn blood from a healthy donor (#179) were used as effector cells.
Target cells (BT474 or SKBR3) of 1×10^4 cells/100 μl/well were placed in 96-well plate and cultured overnight in RPMI1640 media at 37° C./5% CO2. […]
Assay plates were incubated at 37° C./5% CO2 for 6 hours and then equilibrated to room temperature. LDH release from cell lysis was measured using CytoTox-One™ reagent at an excitation wavelength of 560 nm and an emission wavelength of 590 nm. […]
“Experimental” corresponds to the signal measured in one of the condition described above.
“Effector spontaneous” corresponds to the signal measured in the presence of PBMC alone.
“Target spontaneous” corresponds to the signal measured in the presence of target cells alone.
“Target Maximum” corresponds to the signal measured in the presence of detergent-lysed target cells alone.

N87 gastric xenografts = assay: N87 gastric xenograft model; type: in vivo, mouse; conditions: IV Q4dx4
Method: (§4) For each model described below the first dose was given on Day 1. The tumors were measured at least once a week and their volume was calculated with the formula: tumor volume (mm^3)=0.5× (tumor width^2)(tumor length). The mean tumor volumes (±S.E.M.) for each treatment group were calculated having a maximum of 8-10 animals and a minimum of 6-8 animals to be included.
When the tumors reached a volume of 250 to 450 mm^3, the tumors were staged to ensure uniformity of the tumor mass among various treatment groups.

[3] = tested on: GA0044 patient-derived xenografts; assay: GA0044 patient-derived gastric cancer xenograft model; type: in vivo, mouse; conditions: IV Q4dx4, dose not stated
[4] = tested on: N87 cell line xenograft tumors; assay: Bystander effect, immunohistochemistry (human IgG, pHH3) of N87 xenograft tumors; type: in vivo, mouse; conditions: single dose, T-DM1 6 mg/kg or T-vc0101 3 mg/kg, 96 hours
Source text: Tumor sections were stained for human IgG to detect ADC bound to tumor cells and phospho-histone H3 (pHH3) to detect mitotic cells as a readout of the proposed mechanism of action for the payloads of both ADCs.

N87 cells = conditions: read-out: IC80, payload concentration, approximate
Method: as §2, §3

N87 tumors = assay: In vivo efficacy on parental N87 tumors in NSG mice; parameters: species or system mouse; conditions: 6 and 10 mg/kg, Q4Dx4, N87 model
Method: Mice were injected subcutaneously in the right flank with suspensions of either N87 or N87-TM cells (7.5×10^6 cells per injection, with 50% Matrigel). Mice were randomized into study groups when tumors reached ˜0.3 g (˜250 mm^3). […] Tumors were measured weekly and mass calculated as volume=(width×width×length)/2. Time-to-event analysis (tumor doubling) was conducted and significance evaluated by Log-rank (Mantel-Cox) test.

N87 xenografts = assay: T-DM1 resistance generated in vivo in N87 xenografts and follow-on treatment; parameters: species or system mouse; conditions: […] weekly, n=20
Method: Tumors were measured twice per week or weekly and mass calculated as volume=(width×width×length)/2.

JIMT-1 breast xenografts = conditions: even at 6 mg/kg, IV Q4dx4
Method: as §4
To generate xenografts, nude (Nu/Nu) female mice were implanted subcutaneously with 5×10^6 JIMT-1 cells (DSMZ # ACC-589) in 50% Matrigel (BD Biosciences). When the tumors reached a volume of 200 to 250 mm^3, the tumors were staged to ensure uniformity of the tumor mass among various treatment groups.

[5] = tested on: 144580 breast patient-derived xenografts; conditions: all doses tested (1, 5, 3 and 6 mg/kg), IV Q4dx4
Method: as §4
The 144580 breast patient-derived xenografts were subcutaneously passaged in vivo as fragments from animal to animal in nude (Nu/Nu) female mice. When the tumors reached a volume of 150 to 300 mm^3, they were staged to ensure uniformity of the tumor size among various treatment groups.

[6] = tested on: 37622 patient-derived xenografts; conditions: 10 mg/kg, IV Q4dx4
Method: as §4
Several ADCs were tested in patient-derived Non-Small Cell Lung Cancer xenograft model of 37622 obtained in accordance with appropriate consent procedures. The 37622 patient-derived xenografts were subcutaneously passaged in vivo as fragments from animal to animal in nude (Nu/Nu) female mice. When the tumors reached a volume of 150 to 300 mm^3, they were staged to ensure uniformity of the tumor size among various treatment groups.

[7] = read-out: Sensitivity to free payload (IC50), N87-T-DM1_Ms2
[8] = read-out: Sensitivity to free payload (IC50), N87-T-DM1_Ms7
[9] = read-out: Sensitivity to free payload (IC50), N87-T-DM1_Ms17

## CC[C@H](C)[C@@H]([C@@H](CC(=O)N1CCC[C@H]1[C@H](OC)[C@@H](C)C(=O)N[C@@H](Cc1ccccc1)c1nccs1)OC)N(C)C(=O)[C@@H](NC(=O)C(C)(C)N)C(C)C [Aur-0101] (H-[Aib]V[Dil][Dolaproine]-Doe)
[1]; [7]
  IC50: 0.4 nM
[1]; [8]
  IC50: 0.6 nM
[1]; [9]
  IC50: 0.28 nM
Parental N87 cells
  IC50: 0.5 nM

## COc1cc2cc(c1Cl)N(C)C(=O)C[C@H](OC(=O)[C@H](C)N(C)C(=O)CCS)[C@]1(C)O[C@H]1[C@H](C)[C@@H]1C[C@@](O)(NC(=O)O1)[C@H](OC)/C=C/C=C(\C)C2 [DM1]
N87-TM cells
  sensitivity of N87-TM cells (in words): retained sensitivity

## CC[C@H](C)[C@@H]([C@@H](CC(=O)N1CCC[C@H]1[C@H](OC)[C@@H](C)C(=O)N[C@@H](Cc1ccccc1)c1nccs1)OC)N(C)C(=O)[C@@H](NC(=O)C(C)(C)N)C(C)C [compound 0101, 2-methylalanyl-N-[(3R,4S,5S)-3-methoxy-1-{(2S)-2-[(1R,2R)-1-methoxy-2-methyl-3-oxo-3-{[(1S)-2-phenyl-1-(1,3-thiazol-2-yl)ethyl]amino}propyl]pyrrolidin-1-yl}-5-methyl-1-oxoheptan-4-yl]-N-methyl-L-valinamide] (H-[Aib]V[Dil][Dolaproine]-Doe)
N87-TM cells
  sensitivity of N87-TM cells (in words): retained sensitivity
[1]
  sensitivity of cells relapsed from T-DM1 treatment (in words): surprisingly sensitive; also recorded: not resistant

## COc1cccc2c1C(=O)c1c(O)c3c(c(O)c1C2=O)C[C@@](O)(C(=O)CO)C[C@@H]3O[C@H]1C[C@H](N)[C@H](O)[C@H](C)O1 [doxorubicin]
N87-TM cells
  sensitivity of N87-TM cells (in words): lack of cross-resistance
[1]; [7]
  IC50: 46 nM
[1]; [8]
  IC50: 79 nM
[1]; [9]
  IC50: 34 nM
[1]
  sensitivity of cells relapsed from T-DM1 treatment (in words): No resistance
Parental N87 cells
  IC50: 48 nM

## CC(=O)O[C@H]1C(=O)[C@@]2(C)[C@H]([C@H](OC(=O)c3ccccc3)[C@]3(O)C[C@H](OC(=O)[C@H](O)[C@@H](NC(=O)c4ccccc4)c4ccccc4)C(C)=C1C3(C)C)[C@]1(OC(C)=O)CO[C@@H]1C[C@@H]2O [paclitaxel]
N87-TM cells
  sensitivity of N87-TM cells (in words): lack of cross-resistance

## T-DM1
[2]
  ADCC activity (in words): conform the reported ADCC activities
N87 gastric xenografts; 10 mg/kg
  tumor response: complete regression of tumors
N87 gastric xenografts; 1 and 3 mg/kg
  tumor response: delayed tumor growth
[3]
  tumor growth compared to vehicle: no appreciable difference in tumor growth as compared to vehicle treated tumors
[4]
  location of the majority of pHH3 positive tumor cells: located near the ADC
N87 cells
  IC80: ~10 nM
N87 tumors
  mice in which tumor doubling was prevented for at least 60 days: > 50%
N87 xenografts
  mice that responded to initial T-DM1 treatment: 17 out of 20
[1]
  sensitivity of cells relapsed from T-DM1 treatment (in words): resistant
JIMT-1 breast xenografts
  tumor response: inactive
[5]
  tumor response: ineffective
[6]
  tumor response: only provided some therapeutic benefit
